Experiments:
[1] = target: Cyclin-dependent kinase 2/cyclin A (Homo sapiens, UniProt P24941); assay: Inhibition of recombinant CDK2/Cyclin A expressed in insect Sf9 cells assessed as inhibition of [33P]-ATP incorporation into biotinylated histone H1 after 1 hr by liquid scintillation counting
[2] = target: T1, Serine/threonine-protein kinase Chk1 (Homo sapiens, UniProt O14757)
T1 sequence (O14757 whole entry): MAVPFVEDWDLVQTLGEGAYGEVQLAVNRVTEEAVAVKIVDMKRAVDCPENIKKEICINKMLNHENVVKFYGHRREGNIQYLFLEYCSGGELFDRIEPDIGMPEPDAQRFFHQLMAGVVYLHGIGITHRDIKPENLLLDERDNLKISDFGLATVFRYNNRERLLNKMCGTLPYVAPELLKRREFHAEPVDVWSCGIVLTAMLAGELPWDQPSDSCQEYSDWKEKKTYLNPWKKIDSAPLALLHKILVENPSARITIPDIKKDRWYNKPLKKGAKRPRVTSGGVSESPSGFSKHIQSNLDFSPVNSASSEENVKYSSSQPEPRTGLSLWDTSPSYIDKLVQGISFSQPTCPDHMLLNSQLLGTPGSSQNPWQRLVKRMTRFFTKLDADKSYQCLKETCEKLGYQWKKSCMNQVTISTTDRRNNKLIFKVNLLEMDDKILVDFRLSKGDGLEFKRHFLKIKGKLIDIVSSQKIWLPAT
Description: Inhibition of histidine-tagged recombinant CHK1 expressed in baculovirus expression system after 2 hrs by scintillation proximity assay

IC50 [1] [nM]	IC50 [2] [nM]	Structure (SMILES)
310	3	Cn1cc(-c2cnn3c(N)c(Cl)c(C4CCCNC4)nc23)cn1 (stereo not drawn)
160	–	Cn1cc(-c2cnn3c(N)c(Br)c(C4CCCNC4)nc23)cn1 (stereo not drawn)
330	–	Cn1cc(-c2cnn3c(N)c(I)c(C4CCCNC4)nc23)cn1 (stereo not drawn)
330	–	CCc1c(C2CCCNC2)nc2c(-c3cnn(C)c3)cnn2c1N (stereo not drawn)
520	–	CC#Cc1c(C2CCCNC2)nc2c(-c3cnn(C)c3)cnn2c1N (stereo not drawn)
170	–	Cn1cc(-c2cnn3c(N)c(C4CC4)c(C4CCCNC4)nc23)cn1 (stereo not drawn)
48	26	Cn1cc(-c2cnn3c(N)c(CCO)c(C4CCCNC4)nc23)cn1 (stereo not drawn)
2200	–	COC/C=C/c1c(C2CCCNC2)nc2c(-c3cnn(C)c3)cnn2c1N (stereo not drawn)
1700	100	Cn1cc(-c2cnn3c(N)c(C#N)c(C4CCCNC4)nc23)cn1 (stereo not drawn)
8300	–	Cn1cc(-c2cnn3c(N)c(-c4ccccc4)c(C4CCCNC4)nc23)cn1 (stereo not drawn)
990	–	Cn1cc(-c2cnn3c(N)c(-c4cccs4)c(C4CCCNC4)nc23)cn1 (stereo not drawn)
2200	–	Cn1cc(-c2cnn3c(N)c(-c4ccsc4)c(C4CCCNC4)nc23)cn1 (stereo not drawn)
2300	–	Cn1cc(-c2cnn3c(N)c(-c4ccoc4)c(C4CCCNC4)nc23)cn1 (stereo not drawn)
1500	–	Cn1cc(-c2cnn3c(N)c(-c4cccnc4)c(C4CCCNC4)nc23)cn1 (stereo not drawn)
11000	–	Cn1cc(-c2cnn3c(N)c(-c4ccncc4)c(C4CCCNC4)nc23)cn1 (stereo not drawn)
22000	100	Cn1cc(-c2c(C3CCCNC3)nc3c(-c4cnn(C)c4)cnn3c2N)cn1 (stereo not drawn)
170	17	Nc1c(Br)c(C2CCCNC2)nc2c(-c3cccnc3)cnn12 (stereo not drawn)
100	–	Nc1c(Br)c(C2CCCNC2)nc2c(-c3ccoc3)cnn12 (stereo not drawn)
200	8	Cc1ncc(-c2cnn3c(N)c(Br)c(C4CCCNC4)nc23)s1 (stereo not drawn)
1300	4000	Cn1cc(-c2cnn3c(N)c(Br)c(-c4cccnc4)nc23)cn1
28700	2900	Cn1cc(-c2cnn3c(N)c(Br)c(C4CCCCN4)nc23)cn1 (stereo not drawn)
490	35	Cn1cc(-c2cnn3c(N)c(Br)c(C4CCNCC4)nc23)cn1
1200	130	Cn1cc(-c2cnn3c(N)c(Br)c(C4CNCCO4)nc23)cn1 (stereo not drawn)
150	–	Cn1cc(-c2cnn3c(N)c(Br)c(C4CNCCS4)nc23)cn1 (stereo not drawn)
510	31	Cn1cc(-c2cnn3c(N)c(Br)c(C4CCNC4)nc23)cn1 (stereo not drawn)
–	34	Cn1cc(-c2cnn3c(N)c(Br)c(CCN)nc23)cn1
2800	87	Cn1cc(-c2cnn3c(N)c(Br)c(CC4CCNCC4)nc23)cn1
–	7	Cn1cc(-c2cnn3c(N)c(Br)c(CC4CCNC4)nc23)cn1 (stereo not drawn)
–	7	Cn1cc(-c2cnn3c(N)c(Br)c(CC4CCCNC4)nc23)cn1 (stereo not drawn)
440	5	Cn1cc(-c2cnn3c(N)c(Br)c(C[C@H]4CCC[C@@H](N)C4)nc23)cn1 (relative stereo)
